Literature values in US20260257261A1, “BIOMIMETIC MULTIFUNCTIONAL LIGNOCELLULOSIC DEGRADABLE SORBENT FOR ENVIRONMENTAL REMEDIATION” (THE TEXAS A&M UNIVERSITY SYSTEM, priority 2022, published 2026).

Settings: previous studies by Mahapatra et al. and others

For `O=C(O)C(F)(F)C(F)(F)C(F)(F)F` [PFBA], which “toxicity relative to PFOA (C8)” value is on record?
The value was “much less toxic”.

For `O=C(O)C(F)(F)C(F)(F)C(F)(F)C(F)(F)C(F)(F)F` [PFHA, perfluorohexanoic acid], which “toxicity relative to PFOA (C8)” value is on record?
The value was “much less toxic”.

With `O=C(O)C(F)(F)C(F)(F)C(F)(F)C(F)(F)F` [PUPA] as the compound, how does the “toxicity relative to PFOA (C8)” value read?
Its value is “much less toxic”.
